According to US12077503B2, “Substituted cyclic amides and their use as herbicides” (FMC CORPORATION, priority 2015, dated 2024):

Key:
Assay type in all cases: in vivo
[1] = system: ducksalad (Heteranthera limosa); experiment: Test B flooded paddy test; settings: Flood, 0 to 100 scale where 0 is no effect and 100 is complete control, 13 to 15 d
Summary of the method: (§1)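 Percent control, visually estimated after 13–15 d in the greenhouse on a 0–100 basis, compares treated pots with untreated ones; compound was put into paddy water 3 cm above the soil when plants had two leaves.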

[2] = system: barnyardgrass (Echinochloa crus-galli); experiment: Test B flooded paddy test; settings: Flood, 0 to 100 scale where 0 is no effect and 100 is complete control, 13 to 15 d
Summary of the method: as §1

[3] = system: sedge, umbrella (small-flower umbrella sedge, Cyperus difformis); experiment: Test B flooded paddy test; settings: Flood, 0 to 100 scale where 0 is no effect and 100 is complete control, 13 to 15 d
Summary of the method: as §1

[4] = system: rice (Oryra sativa); experiment: Test B flooded paddy test; settings: Flood, 0 to 100 scale where 0 is no effect and 100 is complete control, 13 to 15 d
Summary of the method: as §1

[5] = system: Kochia (Kochia scoparia); experiment: Test A preemergence; settings: for Plant response rating, Kochia: preemergence
Summary of the method: (§2)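 Ratings of 0 (no effect) to 100 (complete control) come from visual comparison with untreated controls roughly 10 d after treatment. Test chemicals, formulated in a non-phytotoxic solvent mixture with surfactant, were applied either as a preemergence directed soil spray on seeded soil or postemergence to one- to two-leaf plants 2 to 10 cm tall.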

[6] = system: ryegrass, Italian (Italian ryegrass, Lolium multiflorum); experiment: Test A preemergence; settings: for Plant response rating, Ryegrass, Italian: preemergence
Summary of the method: as §2

[7] = system: giant foxtail (Setaria faberii); experiment: Test A preemergence; settings: for Plant response rating, Foxtail, Giant: preemergence
Summary of the method: as §2

[8] = system: ragweed (common ragweed, Ambrosia elatior); experiment: Test A preemergence; settings: for Plant response rating, Ragweed: preemergence
Summary of the method: as §2

[9] = system: barnyardgrass (Echinochloa crus-galli); experiment: Test A preemergence; settings: for Plant response rating, Barnyardgrass: preemergence
Summary of the method: as §2

[10] = system: pigweed (Amaranthus retroflexus); experiment: Test A preemergence; settings: for Plant response rating, Pigweed: preemergence
[11] = system: Galium (catchweed bedstraw, Galium aparine); experiment: Test A postemergence; settings: postemergence
Summary of the method: as §2

[12] = system: Kochia (Kochia scoparia); experiment: Test A postemergence; settings: postemergence
Summary of the method: as §2

[13] = system: ryegrass, Italian (Italian ryegrass, Lolium multiflorum); experiment: Test A postemergence; settings: postemergence
Summary of the method: as §2

[14] = system: giant foxtail (Setaria faberii); experiment: Test A postemergence; settings: postemergence
Summary of the method: as §2

[15] = system: ragweed (common ragweed, Ambrosia elatior); experiment: Test A postemergence; settings: postemergence
Summary of the method: as §2

[16] = system: barnyardgrass (Echinochloa crus-galli); experiment: Test A postemergence; settings: postemergence
Summary of the method: as §2

[17] = system: wheat (Triticum aestivum); experiment: Test A postemergence; settings: postemergence
Summary of the method: as §2

[18] = system: pigweed (Amaranthus retroflexus); experiment: Test A postemergence; settings: postemergence
Summary of the method: as §2

[19] = system: blackgrass (Alopecurus myosuroides); experiment: Test A postemergence; settings: postemergence
Summary of the method: as §2

[20] = system: corn (Zea mays); experiment: Test A postemergence; settings: postemergence
Summary of the method: as §2

[21] = 125 g ai/ha, visual rating after approx. 10 d, 0 to 100 scale where 0 is no effect and 100 is complete control
[22] = 500 g ai/ha, 0 to 100 scale, 0 = no effect, 100 = complete control
[23] = 125 g ai/ha, visual injury after approximately 10 d, 0 to 100 scale (0 no effect, 100 complete control)
[24] = 500 g ai/ha, visual injury, 0 to 100 scale (0 no effect, 100 complete control), approx. 10 d
[25] = 125 g ai/ha, 0 to 100 scale (0 no effect, 100 complete control)
[26] = Preemergence, 500 g ai/ha, visual injury approx. 10 d
[27] = 125 g ai/ha, visual injury rating on 0 to 100 scale (0 no effect, 100 complete control), approx. 10 d
[28] = 500 g ai/ha, 0 to 100 scale, 0 no effect, 100 complete control

Compound: O=C1NCC(c2cccc3ccccc23)C1C(=O)Nc1ccccc1C(F)(F)F (racemic) [Compound 712]
- Plant response rating, Ducksalad ([1]; 500 g ai/ha): 0
- Plant response rating, Barnyardgrass ([2]; 500 g ai/ha): 0
- Plant response rating, Sedge, Umbrella ([3]; 500 g ai/ha): 0
- Plant response rating, Rice ([4]; 500 g ai/ha): 0
- Plant response rating, Kochia [5, 21]: 0
- Plant response rating, Kochia [5, 22]: 0
- Plant response rating, Ryegrass, Italian [6, 21]: 0
- Plant response rating, Ryegrass, Italian [6, 22]: 0
- Plant response rating, Foxtail, Giant [7, 21]: 0
- Plant response rating, Foxtail, Giant [7, 22]: 0
- Plant response rating, Ragweed [8, 21]: 0
- Plant response rating, Ragweed [8, 22]: 0
- Plant response rating, Barnyardgrass [9, 21]: 0
- Plant response rating, Barnyardgrass [9, 22]: 0
- Plant response rating, Pigweed [10, 21]: 0
- Plant response rating, Pigweed [10, 22]: 0
- Plant response rating, Galium [11, 23]: 0
- Plant response rating, Galium [11, 24]: 0
- Plant response rating, Kochia [12, 23]: 0
- Plant response rating, Kochia [12, 24]: 0
- Plant response rating, Ryegrass, Italian [13, 23]: 0
- Plant response rating, Ryegrass, Italian [13, 24]: 0
- Plant response rating, Foxtail, Giant [14, 23]: 0
- Plant response rating, Foxtail, Giant [14, 24]: 0
- Plant response rating, Ragweed [15, 23]: 0
- Plant response rating, Ragweed [15, 24]: 0
- Plant response rating, Barnyardgrass [16, 23]: 0
- Plant response rating, Barnyardgrass [16, 24]: 0
- Plant response rating, Wheat [17, 23]: 0
- Plant response rating, Wheat [17, 24]: 0
- Plant response rating, Pigweed [18, 23]: 0
- Plant response rating, Pigweed [18, 24]: 0
- Plant response rating, Blackgrass [19, 23]: 0
- Plant response rating, Blackgrass [19, 24]: 0
- Plant response rating, Corn [20, 23]: 0
- Plant response rating, Corn [20, 24]: 0

Compound: O=C(Nc1cccc(F)c1F)C1C(=S)NCC1c1cccc(C(F)(F)F)c1 (stereo not drawn) [Compound 454]
- Plant response rating, Ducksalad ([1]; 250 g ai/ha): 60
- Plant response rating, Barnyardgrass ([2]; 250 g ai/ha): 40
- Plant response rating, Sedge, Umbrella ([3]; 250 g ai/ha): 0
- Plant response rating, Rice ([4]; 250 g ai/ha): 15
- Plant response rating, Kochia [5, 25]: 0
- Kochia plant response rating (0 to 100 scale, 0 is no effect, 100 is complete control) [5, 26]: 0
- Plant response rating, Ryegrass, Italian [6, 25]: 0
- Ryegrass, Italian plant response rating (0 to 100 scale, 0 is no effect, 100 is complete control) [6, 26]: 30
- Plant response rating, Foxtail, Giant [7, 25]: 80
- Foxtail, Giant plant response rating (0 to 100 scale, 0 is no effect, 100 is complete control) [7, 26]: 90
- Plant response rating, Ragweed [8, 25]: 0
- Ragweed plant response rating (0 to 100 scale, 0 is no effect, 100 is complete control) [8, 26]: 0
- Plant response rating, Barnyardgrass [9, 25]: 70
- Barnyardgrass plant response rating (0 to 100 scale, 0 is no effect, 100 is complete control) [9, 26]: 80
- Plant response rating, Pigweed [10, 25]: 0
- Pigweed plant response rating (0 to 100 scale, 0 is no effect, 100 is complete control) [10, 26]: 0
- Galium plant response rating [11, 27]: 0
- Plant response rating, Galium [11, 28]: 30
- Kochia plant response rating [12, 27]: 0
- Plant response rating, Kochia [12, 28]: 0
- Ryegrass, Italian plant response rating [13, 27]: 0
- Plant response rating, Ryegrass, Italian [13, 28]: 40
- Foxtail, Giant plant response rating [14, 27]: 70
- Plant response rating, Foxtail, Giant [14, 28]: 80
- Ragweed plant response rating [15, 27]: 0
- Plant response rating, Ragweed [15, 28]: 0
- Barnyardgrass plant response rating [16, 27]: 60
- Plant response rating, Barnyardgrass [16, 28]: 80
- Wheat plant response rating [17, 27]: 20
- Plant response rating, Wheat [17, 28]: 40
- Pigweed plant response rating [18, 27]: 0
- Plant response rating, Pigweed [18, 28]: 0
- Blackgrass plant response rating [19, 27]: 0
- Plant response rating, Blackgrass [19, 28]: 50
- Corn plant response rating [20, 27]: 50
- Plant response rating, Corn [20, 28]: 70
